{"source": "patent US9885704B2", "about": "“Reagents and methods for cancer treatment and prevention” (priority 2006, dated 2018)", "key": {"HeLa cells": {"tested_on": "HeLa cells", "test": "Pro-inflammatory cytokine release from THP-1 after exposure to compound-treated HeLa cells (ELISA)", "type": "cell-based, human", "conditions": "for TNF-α secretion / immunostimulatory activity: HeLa cells treated with compound, FIG. 1", "protocol": "The human cervical epithelium cell line HeLa and the mouse B16-F10 melanoma were purchased from American TCC and maintained in Dulbecco's modified eagle's media [D-MEM (Cellgro®, Herndon Va.)] supplemented with 10% fetal bovine serum (Sigma-Aldrich, St. Louis, Mo.). All cell stress/death-related treatments described below were performed using HeLa cells in initial screens. The human promonocytic leukemia THP-1 (ATCC, Manassas Va.) and pro-macrophage MonoMac6 cells were utilized as the reporter antigen presenting cells utilized in this study. Ziegler-Heitbrock et al., “Establishment of a human cell line (Mono Mac 6) with characteristics of mature monocytes” Int. J. Cancer 41:456-461 (1988). Both lines were maintained in RPMI-1640 media (Cellgro®) supplemented with 10% fetal bovine serum. Unless otherwise noted, all cells were maintained at 37° C. in a humidified incubator supplemented with 5% CO2.\nThe following list includes the small molecule compounds evaluated in this study: thapsigargin, thapsigargicin (MP Biomedicals, Irvine Calif.), 1,2-bis(o-aminophenoxy)ethane-N,N,N′,N′-tetraacetic Acid Tetra(acetoxymethyl) ester [BAPTA-AM, (EMD Biosciences, San Diego, Calif.)], ethyleneglycol-bis(β-aminoethyl)-N,N,N′,N′-tetraacetoxymethyl ester [EGTA-AM (EMD Biosciences)], 1,2-bis(2-aminophenoxy)ethane-N,N,N′,N′-tetraacetic acid […], tetrandrine, KCl, Amyloid peptide Aβ1-42, 1-Oleoyl-2-acetyl-sn-glycerol (OAG), calcimycin A23187, 2-aminoethyl diphenylborinate (2-APB), histamine, cyclopiazonic acid, 2,5-di-(t-butyl)-1,4-hydroquinone [BHQ (EMD Biosciences)], GdCl3, nicardipine hydrochloride, 1-(o-chloro-α,αdiphenylbenzyl)imidazole (clotrimazole), apamin, charybdotoxin, radicicol, brefeldin A, tunicamycin, tamoxifen, ionomycin, staurosporine, cis-diammineplatinum(II) dichloride (cisplatin), paclitaxel, methotrexate, cycloheximide, and rapamycin. Unless otherwise noted, all compounds were purchased from Sigma-Aldrich. Compounds were dissolved per manufacturer's recommendations prior to addition to HeLa cells in a range of concentrations based on the published literature and incubated between 1 minute to two days. The known mediators of inflammation pam3cys-ser-(lys)4, hydrochloride (Pam3Cys), bacterial flagellin, and lipopolysaccharide were purchased from EMD Biosciences.\nFollowing cell stress/death, resulting cells/cell debris were collected, washed 3 times with excess phosphate-buffered saline, rapidly cycled through freeze/thaw (−80° C. to 25° C.) three times, and quantified by UV spectrophotometry (A280). To determine the presence of pro-inflammatory signals within stressed/dead cells, 40 μg of stressed/dead cell were added to 50,000 THP-1 and incubated for 18 hours. Supernatants were assessed for the presence of pro-inflammatory cytokines including tumor necrosis factor-α (TNF-α), interleukin 8 (IL-8), and IL-12 using commercially available ELISA systems.\nA variety of different potential cell stress and cell death inducing agents were screened. […] (See FIG. 1)."}, "[1]": {"tested_on": "Ca(2+)-ATPase from sarcoplasmic and endoplasmic reticula", "conditions": "activity not further specified; context Ca(2+)-ATPase inhibitory potency; cited from earlier work"}, "[2]": {"tested_on": "NF-κB promoter (MonoMac-6 Clone C5)", "test": "NF-κB promoter luciferase reporter, MonoMac-6 Clone C5", "type": "cell-based, human", "conditions": "FIG. 11", "excerpt": "A stably transfected DNA construct encoding a NF-κB promoter driving firefly luciferase expression was integrated into: i) human pre-monocytic cell line THP-1; and ii) human premonocytic cell line MonoMac-6. Briefly, DNA encoding a concatemerized NF-κB response element upstream of the firefly luciferase gene [Ting et al., “RIP mediates tumor necrosis factor receptor 1 activation of NF-kappaB but not Fas/APO-1-initiated apoptosis” EMBO J. November 15; 15(22):6189-96(1996)] was subcloned into the pEAK8 vector backbone (Edge Biosystems, Gaithersburg Md.) by standard molecular biology techniques. Electroporations were performed using 10 μg of DNA and 700,000 THP-1 or MonoMac6 cells using a Biorad Gene Pulser II electroporator (Biorad, Hercules Calif.), 0.4 cm electrocuvettes, and 200 V, 950 μF. Following electroporation, cells were allowed to recover for two days prior to selection with 300 ng/ml puromycin aminonucleoside (Sigma-Aldrich) for the generation of stably transfected clones. Luciferase expression was quantified using a Top Count NXT luminometer (Perkin Elmer, Wellesley Mass.). Briefly, 50,000 reporter cells were incubated with indicated concentrations of the mediators of inflammation listed for 18 hours in 96-well white plates prior to harvest and analysis.\nA second stable NF-κB reporter construct transfectant was created using MonoMac-6 cells. […]"}, "[3]": {"tested_on": "NF-κB promoter (THP-1 Clone A9)", "test": "NF-κB promoter luciferase reporter, THP-1 Clone A9", "type": "cell-based, human", "conditions": "50,000 reporter cells, 18 hours; FIG. 10", "excerpt": "A stably transfected DNA construct encoding a NF-κB promoter driving firefly luciferase expression was integrated into: i) human pre-monocytic cell line THP-1; and ii) human premonocytic cell line MonoMac-6. Briefly, DNA encoding a concatemerized NF-κB response element upstream of the firefly luciferase gene [Ting et al., “RIP mediates tumor necrosis factor receptor 1 activation of NF-kappaB but not Fas/APO-1-initiated apoptosis” EMBO J. November 15; 15(22):6189-96(1996)] was subcloned into the pEAK8 vector backbone (Edge Biosystems, Gaithersburg Md.) by standard molecular biology techniques. Electroporations were performed using 10 μg of DNA and 700,000 THP-1 or MonoMac6 cells using a Biorad Gene Pulser II electroporator (Biorad, Hercules Calif.), 0.4 cm electrocuvettes, and 200 V, 950 μF. […] Luciferase expression was quantified using a Top Count NXT luminometer (Perkin Elmer, Wellesley Mass.). […]\nThe THP-1-derived clone A9 recognition of the TLR ligands Pam-3-Cys (signaling through TLR2) and bacterial flagellin (signaling through TLR5), but not bacterial lipopolysaccharide (signaling through TLR4) was determined by monitoring NF-κB activity in 96-well white plate automated assays during TG incubation. […]"}}}
{"compound": "CC(=O)O[C@H]1C(=O)[C@@]2(C)[C@H]([C@H](OC(=O)c3ccccc3)[C@]3(O)C[C@H](OC(=O)[C@H](O)[C@@H](NC(=O)c4ccccc4)c4ccccc4)C(C)=C1C3(C)C)[C@]1(OC(C)=O)CO[C@@H]1C[C@@H]2O", "note": "[Taxol®, paclitaxel]", "values": [{"measurement": "TNF-α secretion / immunostimulatory activity", "setting": "HeLa cells", "result": "did not induce immunostimulatory activity"}]}
{"compound": "C/C=C(/C)C(=O)O[C@H]1C(C)=C2[C@H]([C@@H]1OC(=O)CCCCC)[C@@](C)(OC(C)=O)C[C@H](OC(=O)CCC)[C@@]1(O)[C@H]2OC(=O)[C@@]1(C)O", "note": "[Thapsigargicin]", "values": [{"measurement": "secretion of IL-8 from THP-1", "setting": "HeLa cells; treated HeLa cells, monocyte cell line THP-1, FIG. 2", "result": "activated a dose-dependent secretion of IL-8"}]}
{"compound": "C[C@H]1CCC/C=C/[C@@H]2C[C@H](O)C[C@H]2[C@H](O)/C=C/C(=O)O1", "note": "[brefledin A, brefeldin A]", "values": [{"measurement": "TNF-α secretion / immunostimulatory activity", "setting": "HeLa cells", "result": "did not induce immunostimulatory activity"}]}
{"compound": "CNc1ccc2oc(C[C@H]3O[C@@]4(CC[C@H]3C)O[C@H]([C@H](C)C(=O)c3ccc[nH]3)[C@H](C)C[C@H]4C)nc2c1C(=O)O", "note": "[calcimycin, calcimycin A23187]", "values": [{"measurement": "TNF-α secretion / immunostimulatory activity", "setting": "HeLa cells", "result": "did not induce immunostimulatory activity"}]}
{"compound": "C/C=C(/C)C(=O)O[C@@H]1C[C@H]2[C@@H]([C@H]1C)[C@@H]1OC(=O)[C@@](C)(O)[C@@]1(O)C(OC(=O)[C@@H](C)CC)C[C@]2(C)OC(C)=O", "note": "(stereo partly shown) [compound 77]", "values": [{"measurement": "activity of synthetic thapsigargin analogue", "setting": "[1]", "result": "potent activity"}]}
{"compound": "C[C@@H]1C[C@@H]([C@H](O)CC2CC(=O)NC(=O)C2)C(=O)[C@@H](C)C1", "note": "[cycloheximide]", "values": [{"measurement": "TNF-α secretion / immunostimulatory activity", "setting": "HeLa cells", "result": "did not induce immunostimulatory activity"}]}
{"compound": "bacterial lipopolysaccharide", "values": [{"measurement": "recognition (NF-κB activity, luciferase)", "setting": "[2]", "result": "improved recognition"}]}
{"compound": "pam3cys-ser-(lys)4, hydrochloride", "values": [{"measurement": "recognition (NF-κB activity, luciferase)", "setting": "[2]", "result": "recognized"}, {"measurement": "recognition (NF-κB activity, luciferase)", "setting": "[3]", "result": "recognition"}]}
{"compound": "tunicamycin", "values": [{"measurement": "TNF-α secretion / immunostimulatory activity", "setting": "HeLa cells", "result": "did not induce immunostimulatory activity"}]}
